Common to all, as to assay type: biochemical
One assay has as its target T1, Human PDE4B1 (Homo sapiens, UniProt Q07343, S133E/S654A/S659A/S661A).
T1 construct: His6 (N); thrombin cleavage site (N); made in house; host or cells: insect cells (baculovirus, pFastBac)
The experiment in a line: PDE4B1 Scintillation Proximity Assay (SPA), inhibition of enzyme activity. The following applies: geometric mean of 2-7 determinations unless otherwise indicated (b: ≥8 determinations; c: single determination); 1 μM cAMP, 30 min at 25° C.; read-out: Human PDE4B FL; IC50. How it is done:
The recombinant Bacmid was isolated and used to transfect insect cells to generate a viral stock. To generate cell paste for purification, insect cells were infected with the virus stock and cells were harvested 72 hours after infection as described in Seeger, T. F. et al., Brain Research 985 (2003) 113-126. Insect cell paste was lysed and after centrifugation, the supernatant was chromatographed on Ni-NTA agarose (Qiagen) as described in Seeger, T. F. et al., Brain Research 985 (2003) 113-126. Ni-NTA agarose eluting fractions containing PDE4 were pooled, diluted with Q buffer A (20 mM Tris HCl pH 8, 5% glycerol, 1 mM TCEP) to reduce NaCl to ˜100 mM and loaded on a Source 15Q (GE Healthcare) column. After washing with Q buffer A/10% buffer B to baseline, PDE4D was eluted with a gradient from 10% to 60% of Buffer B (20 mM Tris HCl pH 8, 1 M NaCl, 5% glycerol, 1 mM TCEP). PDE4D fractions were analyzed by SDS-PAGE Coomassie blue staining, pooled based on purity, frozen and stored at −80° C.
(§1) The PDE4A3, PDE4B1, PDE4C1 and PDE4D3 assays use the Scintillation Proximity Assay (SPA) technology to measure the inhibition of human recombinant […], PDE4C1, and PDE4D3 enzyme activity by compounds in vitro. The PDE4A1, PDE4B3, PDE4C1, and PDE4D3 assays are run in parallel using identical parameters, except for the concentration of enzyme (80 pM PDE4A3, 40 pM PDE4B3, 40 pM PDE4C1 and 10 pM PDE4D). The assays are performed in a 384-well format with 50 uL assay buffer (50 mM TRIS pH7.5; 1.3 mM MgCl2; 0.01% Brij) containing enough PDE4A3, PDE4B1, PDE4C1, and PDE4D to convert ˜20% of substrate (1 μM cAMP consisting of 20 nM 3H-cAMP+[…] cold cAMP) and a range of inhibitors. Reactions are incubated for 30 min at 25° C. The addition of 20 uL of 8 mg/ml yitrium silicate SPA beads (Perkin Elmer) stops the reaction. The plates are sealed (TopSeal, Perkin Elmer) and the beads are allowed to settle for 8 hrs, after which they are read on the Trilux Microbeta overnight.

For another assay, the target named is T2, human PDE4D3 (Homo sapiens, UniProt Q08499).
T2 construct: His6 (C); made in house; host or cells: insect cells (baculovirus, pFastBac)
T2 sequence (Q08499 186-808): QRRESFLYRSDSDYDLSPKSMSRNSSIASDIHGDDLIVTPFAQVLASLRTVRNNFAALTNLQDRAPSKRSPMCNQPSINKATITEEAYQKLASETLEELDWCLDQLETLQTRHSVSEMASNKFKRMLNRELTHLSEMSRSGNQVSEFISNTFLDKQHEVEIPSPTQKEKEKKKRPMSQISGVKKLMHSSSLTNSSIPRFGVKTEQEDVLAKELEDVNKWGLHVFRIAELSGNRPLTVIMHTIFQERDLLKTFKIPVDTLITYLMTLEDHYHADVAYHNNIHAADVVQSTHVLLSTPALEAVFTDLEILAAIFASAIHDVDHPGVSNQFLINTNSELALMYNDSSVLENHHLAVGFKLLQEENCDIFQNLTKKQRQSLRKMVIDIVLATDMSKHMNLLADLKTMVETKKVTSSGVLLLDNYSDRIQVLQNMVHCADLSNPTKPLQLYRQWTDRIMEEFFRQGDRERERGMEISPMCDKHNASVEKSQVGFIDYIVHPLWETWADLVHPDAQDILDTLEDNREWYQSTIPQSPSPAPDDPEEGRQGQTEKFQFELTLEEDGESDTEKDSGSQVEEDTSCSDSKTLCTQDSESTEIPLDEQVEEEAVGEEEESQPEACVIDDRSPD
The experiment in a line: PDE4D3 Scintillation Proximity Assay (SPA), inhibition of enzyme activity. The following applies: geometric mean of 2-7 determinations unless otherwise indicated (b: ≥8 determinations; c: single determination); 1 μM cAMP, 30 min at 25° C.; read-out: Human PDE4D FL; IC50. How it is done:
The recombinant Bacmid was isolated and used to transfect insect cells to generate a viral stock. To generate cell paste for purification, insect cells were infected and cells were harvested 72 hours after infection. Insect cell paste was lysed and after centrifugation, the supernatant was chromatographed on Ni-NTA agarose (Qiagen) as described in Seeger, T. F. et al., Brain Research 985 (2003) 113-126. Ni-NTA agarose eluting fractions containing PDE4 were pooled, diluted with Q Buffer A (50 mM Tris HCl pH 8, 4% glycerol, 100 mM NaCl, 1 mM TCEP, Protease inhibitors EDTA-free (Roche)) to reduce NaCl to ˜200 mM, and loaded on a Q Sepharose (GE Healthcare) column. After washing with Q buffer A to baseline, PDE4D was eluted with a gradient from 10% to 60% of Buffer B (50 mM Tris HCl pH 8, 1 M NaCl, 4% glycerol, 1 mM TCEP). PDE4D fractions were analyzed by SDS-PAGE Coomassie blue staining, pooled based on purity, frozen and stored at −80° C.
as §1
On the technique in general: SPA uses beads or plates that emit light when radiolabelled molecules are held near them.

The target of a further assay is T3, Human PDE4C1 (Homo sapiens, UniProt Q08493).
T3 construct: His6 (N); FLAG (C); made in house; host or cells: insect cells (baculovirus, pFastBac)
T3 sequence (Q08493 2-712): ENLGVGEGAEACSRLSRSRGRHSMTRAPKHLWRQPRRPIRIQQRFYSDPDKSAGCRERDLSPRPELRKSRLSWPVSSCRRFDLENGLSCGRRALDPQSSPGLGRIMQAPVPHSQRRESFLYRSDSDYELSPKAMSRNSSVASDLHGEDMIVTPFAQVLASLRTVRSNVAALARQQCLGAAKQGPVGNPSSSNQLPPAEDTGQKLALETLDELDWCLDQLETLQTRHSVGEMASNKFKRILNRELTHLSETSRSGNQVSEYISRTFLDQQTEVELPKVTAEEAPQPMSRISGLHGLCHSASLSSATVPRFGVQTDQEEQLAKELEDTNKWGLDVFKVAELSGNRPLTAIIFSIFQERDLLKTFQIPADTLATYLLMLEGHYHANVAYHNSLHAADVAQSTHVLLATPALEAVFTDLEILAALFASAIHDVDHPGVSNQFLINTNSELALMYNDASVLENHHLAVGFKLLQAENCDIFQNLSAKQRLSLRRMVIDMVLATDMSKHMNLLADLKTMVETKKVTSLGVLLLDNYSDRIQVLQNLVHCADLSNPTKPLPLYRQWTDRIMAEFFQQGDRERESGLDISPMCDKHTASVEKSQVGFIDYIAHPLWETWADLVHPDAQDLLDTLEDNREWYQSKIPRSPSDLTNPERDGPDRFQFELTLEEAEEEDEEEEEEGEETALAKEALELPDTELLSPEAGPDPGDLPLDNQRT
As to the kind of experiment: PDE4C1 Scintillation Proximity Assay (SPA), inhibition of enzyme activity. Particulars: geometric mean of 2-7 determinations unless otherwise indicated (b: ≥8 determinations; c: single determination), 1 μM cAMP, 30 min at 25° C., read-out: Human PDE4C FL. The procedure:
(§2) The recombinant Bacmid was isolated and used to transfect insect cells to generate a viral stock. To generate cell paste for purification, insect cells were infected with the virus stock and cells were harvested 72 hours after infection. Insect cell paste was lysed and after centrifugation, the supernatant was batch bound to Ni-NTA agarose (GE Healthcare) and eluted with 250 mM imidazole. This eluate was diluted with FLAG buffer (50 mM Tris HCL pH 7.5, 100 mM NaCl, 5% Glycerol, 1 mM TCEP with protease inhibitors) and batch bound to ant-FLAG M2 agarose (Sigma) overnight at 4° C. The agarose was packed into a column, washed with buffer and eluted with buffer containing elute using 250 ug/ml Flag-peptide. Fractions were analyzed using SDS-PAGE Coomassie blue staining and pooled based on purity. Pooled fractions were chromatographed on a S200 120 ml column (GE Healthcare) in 50 mM Tris HCL pH 7.5, 150 mM NaCl, 10% Glycerol, 2 mM TCEP with protease inhibitors. PDE4C1 fractions were analyzed by SDS-PAGE Coomassie blue staining, pooled based on purity, dialyzed against 50 mM Tris HCL pH 7.5, 100 mM NaCl, 20% Glycerol, 2 mM TCEP, frozen and stored at −80° C.
as §1

The target of the next assay is T4, Human PDE4A3 (Homo sapiens, UniProt P27815).
T4 construct: His6 (N); FLAG (C); made in house; host or cells: insect cells (baculovirus, pFastBac)
T4 sequence (P27815 2-825 isoform P27815-6): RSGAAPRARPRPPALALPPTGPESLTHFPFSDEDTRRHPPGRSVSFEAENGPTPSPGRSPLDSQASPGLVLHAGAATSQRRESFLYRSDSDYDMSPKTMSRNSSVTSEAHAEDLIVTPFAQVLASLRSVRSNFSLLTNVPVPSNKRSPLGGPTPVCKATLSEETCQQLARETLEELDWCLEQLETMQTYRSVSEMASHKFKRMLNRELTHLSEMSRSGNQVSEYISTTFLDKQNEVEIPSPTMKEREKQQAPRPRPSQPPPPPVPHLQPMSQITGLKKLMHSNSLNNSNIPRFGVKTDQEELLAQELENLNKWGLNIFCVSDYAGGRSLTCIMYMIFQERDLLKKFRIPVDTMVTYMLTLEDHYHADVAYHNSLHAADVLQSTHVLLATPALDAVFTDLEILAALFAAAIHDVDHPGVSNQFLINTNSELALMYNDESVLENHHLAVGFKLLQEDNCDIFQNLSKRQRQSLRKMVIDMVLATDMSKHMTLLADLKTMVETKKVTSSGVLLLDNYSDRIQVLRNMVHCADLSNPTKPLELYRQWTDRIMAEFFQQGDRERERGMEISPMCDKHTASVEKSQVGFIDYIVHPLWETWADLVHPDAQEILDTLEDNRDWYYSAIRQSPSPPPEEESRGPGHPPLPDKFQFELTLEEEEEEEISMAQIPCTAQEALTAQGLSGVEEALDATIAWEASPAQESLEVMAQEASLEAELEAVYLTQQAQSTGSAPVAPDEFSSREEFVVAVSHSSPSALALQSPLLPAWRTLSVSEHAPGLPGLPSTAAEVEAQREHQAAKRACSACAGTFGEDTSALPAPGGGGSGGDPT
As to the kind of experiment: PDE4A3 Scintillation Proximity Assay (SPA), inhibition of enzyme activity. The following applies: geometric mean of 2-7 determinations unless otherwise indicated (b: ≥8 determinations; c: single determination), 1 μM cAMP, 30 min at 25° C., read-out: Human PDE4A FL.
Excerpt: as §2, with “Human PDE4A3 coding sequence (amino acids 2 to 825 from the sequence with accession number NP_001104779) was cloned into the baculovirus expression vector pFastBac (Invitrogen) engineered to include an N-terminal His6 affinity tag and a c-terminal FLAG affinity tag to aid in purification. The recombinant” for “The recombinant”, “protease inhibitors. PDE4A3 fractions were” for “protease inhibitors. PDE4C1 fractions were”
as §1

pIC50: −log10 of the molar value. Structures can show the parent of a compound that is named as a salt.

T1 sequence (Q07343 122-736 S133E/S654A/S659A/S661A): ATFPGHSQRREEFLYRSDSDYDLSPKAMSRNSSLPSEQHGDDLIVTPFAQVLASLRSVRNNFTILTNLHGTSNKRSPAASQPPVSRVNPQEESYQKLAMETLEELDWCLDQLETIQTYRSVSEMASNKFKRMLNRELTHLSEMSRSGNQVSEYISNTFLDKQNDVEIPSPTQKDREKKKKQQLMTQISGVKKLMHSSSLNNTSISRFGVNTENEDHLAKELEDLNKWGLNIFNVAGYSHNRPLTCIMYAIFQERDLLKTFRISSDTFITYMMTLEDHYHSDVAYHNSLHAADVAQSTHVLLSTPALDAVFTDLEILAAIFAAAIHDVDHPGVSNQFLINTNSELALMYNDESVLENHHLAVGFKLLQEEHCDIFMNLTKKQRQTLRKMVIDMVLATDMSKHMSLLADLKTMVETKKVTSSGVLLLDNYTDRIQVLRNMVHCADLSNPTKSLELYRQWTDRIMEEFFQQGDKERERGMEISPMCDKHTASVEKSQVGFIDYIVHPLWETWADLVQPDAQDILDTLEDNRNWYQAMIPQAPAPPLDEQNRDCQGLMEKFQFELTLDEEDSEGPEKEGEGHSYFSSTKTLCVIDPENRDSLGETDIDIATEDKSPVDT

On to `O=C(NC1CC1)c1nn2cccnc2c1-c1ccc(Cl)cc1` [Example 10, 3-(4-chlorophenyl)-N-cyclopropylpyrazolo[1,5-a]pyrimidine-2-carboxamide], for which the pIC50 at Human PDE4B1 was 7.01; at human PDE4D3 it was 5.23; on Human PDE4C1 it was 7.37; at Human PDE4A3, 7.60.

With `CCCNC(=O)c1nn2cccnc2c1-c1ccc(Cl)cc1` [Example 2, 3-(4-Chlorophenyl)-N-propylpyrazolo[1,5-a]pyrimidine-2-carboxamide], the pIC50 at Human PDE4B1 is 7.46; at human PDE4D3 it was 5.38; at Human PDE4C1, 7.22; on Human PDE4A3 it was 7.21.

On to `N#Cc1ccc(-c2c(C(=O)NC3CC3)nn3cccnc23)c(F)c1` [Example 76, 3-(4-cyano-2-fluorophenyl)-N-cyclopropylpyrazolo[1,5-a]pyrimidine-2-carboxamide], for which the pIC50 at Human PDE4B1 was 6.35; on human PDE4D3, less than 4.52.

With `Cc1cc(Cl)ccc1-c1c(C(=O)NC2CC2)nn2cc(F)cnc12` [Example 55, 3-(4-chloro-2-methylphenyl)-N-cyclopropyl-6-fluoropyrazolo[1,5-a]pyrimidine-2-carboxamide], the pIC50 on Human PDE4B1 is 7.52; at human PDE4D3, 5.97; at Human PDE4C1, 7.55; at Human PDE4A3 it was 8.06.

In the case of `O=C(c1nn2cccnc2c1-c1ccc(Cl)cc1F)N1CCC1` [Example 20, azetidin-1-yl[3-(4-chloro-2-fluorophenyl)pyrazolo[1,5-a]pyrimidin-2-yl]methanone], the pIC50 on Human PDE4B1 is 7.17; at human PDE4D3, 4.96; at Human PDE4C1, 6.95; at Human PDE4A3, 7.19.

For `O=C(NC1CC1(F)F)c1nn2cccnc2c1-c1ccc(Cl)c(F)c1` (stereo not shown) [Example 39, 3-(4-chloro-3-fluorophenyl)-N-(2,2-difluorocyclopropyl)pyrazolo[1,5-a]pyrimidine-2-carboxamide], the pIC50 on Human PDE4B1 was 7.89; at human PDE4D3, 6.52; on Human PDE4C1 it was 7.18; on Human PDE4A3 it was 7.63.

As to `O=C(NC1CC1)c1nn2cccnc2c1-c1cccc(Cl)c1` [Example 31, 3-(3-chlorophenyl)-N-cyclopropylpyrazolo[1,5-a]pyrimidine-2-carboxamide, hydrochloride salt], the pIC50 is 7.29 at Human PDE4B1, 5.67 on human PDE4D3, 6.97 at Human PDE4C1 and 7.44 at Human PDE4A3.

Turning to `CCNC(=O)c1nn2cccnc2c1-c1cc(F)c(Cl)cc1F` [Example 19, 3-(4-chloro-2,5-difluorophenyl)-N-ethylpyrazolo[1,5-a]pyrimidine-2-carboxamide], the pIC50 is 7.38 on Human PDE4B1, 5.68 at human PDE4D3, 7.44 on Human PDE4C1 and 7.95 at Human PDE4A3.

For the molecule `O=C(c1nn2cccnc2c1-c1ccnc(OC(F)F)c1)N1CCC1` [Example 37, azetidin-1-yl{3-[2-(difluoromethoxy)pyridin-4-yl]pyrazolo[1,5-a]pyrimidin-2-yl}methanone], the pIC50 at Human PDE4B1 was 7.50; on human PDE4D3 it was 6.16.

Turning to `O=C(NC1CC1)c1nn2cccnc2c1-c1cncc(Cl)c1` [Example 29, 3-(5-chloropyridin-3-yl)-N-cyclopropylpyrazolo[1,5-a]pyrimidine-2-carboxamide], the pIC50 on Human PDE4B1 is 6.88; at human PDE4D3 it was 5.52.

With `O=C(NC1CC1)c1nn2cccnc2c1-c1ccnc(OC(F)F)c1` [Example 38, N-cyclopropyl-3-[2-(difluoromethoxy)pyridin-4-yl]pyrazolo[1,5-a]pyrimidine-2-carboxamide, formate salt], the pIC50 at Human PDE4B1 was 7.29; at human PDE4D3, 6.15.

Take `O=C(Nc1nn2cccnc2c1-c1ccc(Cl)c(F)c1)c1ccccc1` [Example 30, N-[3-(4-chloro-3-fluorophenyl)pyrazolo[1,5-a]pyrimidin-2-yl]benzamide]: the pIC50 at Human PDE4B1 is 5.66; at human PDE4D3, 4.57.

In the case of `O=C(NC1CC1)c1nn2cccnc2c1-c1ccc(Cl)c(Cl)c1` [Example 32, N-cyclopropyl-3-(3,4-dichlorophenyl)pyrazolo[1,5-a]pyrimidine-2-carboxamide, hydrochloride salt], the pIC50 at Human PDE4B1 was 8.00; at human PDE4D3 it was 6.14.

For `O=C(c1nn2cccnc2c1-c1cc(F)c(Cl)c(F)c1)N1CCC1` [Example 41, azetidin-1-yl[3-(4-chloro-3,5-difluorophenyl)pyrazolo[1,5-a]pyrimidin-2-yl]methanone], the pIC50 was 8.27 at Human PDE4B1 and 6.46 on human PDE4D3.

`O=C(c1nn2cccnc2c1-c1cc(Cl)ccc1F)N1CCC1` [Example 74, azetidin-1-yl[3-(5-chloro-2-fluorophenyl)pyrazolo[1,5-a]pyrimidin-2-yl]methanone]: the pIC50 at Human PDE4B1 was 7.34; on human PDE4D3 it was 5.22.

In the case of `O=C(NC1CC1(F)F)c1nn2cccnc2c1-c1ccc(Cl)cc1` (stereo not shown) [Example 40, 3-(4-chlorophenyl)-N-(2,2-difluorocyclopropyl)pyrazolo[1,5-a]pyrimidine-2-carboxamide], the pIC50 was 7.17 at Human PDE4B1 and 5.63 at human PDE4D3.

The record behind these values is patent publication US10131669B2, “Pyrazolopyrimidine compounds” (Pfizer Inc., priority 2014, dated 2018).
